Laboratory results from patent publication US20080293699A1, “Inhibitors of thapsigargin-induced cell death” (priority 2007, published 2008).
“Also recorded” adds a separate entry of the source. Read-outs that look alike come from different tables or passages of the source.

Tests used:
Assay type in all cases: cell-based, rat
[1] = system: CSM14.1 cells; assay: Annexin V staining viability assay (flow cytometry), thapsigargin-treated undifferentiated CSM14.1 cells; settings: hit compounds 25 μM, TG 15 μM
Method: Undifferentiated CSM14.1 cells were cultured as for FIG. 16. The next day, DMSO (a, b) (1% final volume), 100 μM Salubrinal (c, d) or 25 μM of hit compounds (1% final DMSO) was added. After two hrs, 15 μM TG was added to all wells except a and c. The plates were returned to culture for 24 hrs, then cells were recovered by trypsinization, transferred to 1.5 ml microcentrifuge tubes, and resuspended in 0.5 mL of Annexin V-binding solution. The percentage of annexin V-negative cells was determined by flow-cytometry (y-axis). Treatments and compounds were the same as in FIG. 16.
One method we have employed, for example, for confirming protection against TG-induced killing uses fluorochrome-conjugated annexin V staining with flow-cytometry analysis to evaluate the percentage cell viability by a method that is independent of the ATP content assay.
FIGS. 16 and 17 show the results of a secondary assay for evaluating the cytoprotective activity of the compounds. In FIG. 16, undifferentiated CSM14.1 cells were cultured at 10^4 cells per well of 24-well plates (Greiner Bio One). The next day, DMSO (a, b) (1% final volume), 100 μM Salubrinal (c, d) or 25 μM of hit compounds (1% final DMSO) was added. After two hrs, 15 μM TG was added to all wells except a and c. A conventional ATP assay was performed to measure survival rate. In FIG. 17 undifferentiated CSM14.1 cells were cultured at 10^4 cells per well of 24-well plates (Greiner Bio One). The next day, DMSO (a, b) (1% final volume), 100 μM Salubrinal (c, d) or 25 μM of hit compounds (1% final DMSO) was added. After two hrs, 15 μM TG was added to all wells except a and c. […] The percentage of annexin V-negative cells was determined by flow-cytometry (y-axis), using a FACSort instrument (Beckton-Dickinson). […]
7) The percentage of annexin V-negative cells was determined by flow-cytometry (y-axis), using a FACSort analysis facility in Burnham (Beckton & Dickinson)

[2] = system: CSM14.1 cells; assay: Primary HTS assay: ATP content (ATPlite) of undifferentiated CSM14.1 cells challenged with thapsigargin; settings: for IC50: thapsigargin-induced death of undifferentiated CSM14.1, ATP content; for Protection against TG-induced cell death by Salubrinal: 100 μM Salubrinal, 15 μM TG, undifferentiated CSM14.1, ATP
Description: For convenience, and because transient reductions in temperature that might be associated with large screening experiments could restore Large T activity, we elected to develop our HTS using undifferentiated CSM14.1 cells, with the plan to then confirm hits using differentiated cells. For monitoring cell death, we used a commercially available bioluminescence reagent that determines intracellular ATP content, without requirement for complicated cell processing steps (ATPlite, Perkin Elmer). Thus, ATP was used as a surrogate indicator of cell survival for the primary assay.
Undifferentiated or differentiated CSM14.1 cells were plated at a density of 3,000 cells/well in 40 μL DMEM medium (containing 10% serum, 1 mM L-glutamine, and antibiotics) in 96 well flat-bottom microtiter plates composed of polystrene (Greiner Bio One, polystyrene, white wall, flat bottom, lumitrac, high binding). After overnight incubation at 32° C., DMSO (0.5% v/v) or 100 uM Salubrinal (Sal) in DMSO was delivered. After 2 hrs, 5 uL of a stock solution of 150 uM TG in DMEM medium containing 0.75% (v:v) DMSO to achieve a final concentration of approximately 15 uM. After culturing for 24 hrs, cellular ATP content was measured by addition of 20 uL per well of ATPlite solution (Perkin-Elmer), and then the plates were incubated for three minutes at room temperature, before reading with a Microplate Luminometer (BD Pharmingen Moonlight model 3096).
To determine the reproducibility of the ATP content assay, we prepared a 96-well plate in which half the wells received TG plus DMSO (assay minimum) and half received TG plus Salubrinal (assay maximum), then performed the ATP content studies using undifferentiated CSM14.1 cells (FIG. 6). CSM14.1 cells were cultured overnight at 3,000 cells per well in 96-well flat-bottom plates, then either DMSO (0.5% final concentration) or Salubrinal (100 μM) in DMSO (0.5% final concentration) was added to half the well (48 each). After two hrs, TG was added to all wells (15 μM final). Cells were cultured for 24 hrs, then the ATP content was measured using the ATPlite luminogenic assay. We then adapted this assay to the high-throughput environment, using a Biomex™ FX liquid handler for automated dispensing of assay components into microwells of 96-well plates. First, undifferentiated CSM14.1 cells were grown at 32° C. in DMEM medium supplemented with 10% fetal bovine serum (FBS), 1% penicillin/streptomycin, and 1% L-glutamine in 150 mm×25 mm polystyrene culture dishes to produce approximately 3×10^6 cells. Second, CSM14.1 cells were recovered from cultures by trypsinization when at 80-90% confluence, and suspended at 7.5×10^4 cells/mL in DMEM medium containing 2% FBS, 1 mM L-glutamine, and antibiotics 100 IU penicillin 100 μg/ml streptomycin. Third, the cell suspension was then delivered at 40 μL per well of 96-well plastic microtiter plates (Greiner Bio One, polystyrene, white wall, flat bottom, lumitrac, high binding, cat #655074), and the plates were cultured overnight at 32° C. in a humidified atmosphere in 95% air: 5% CO2. Fourth, using the automated liquid handler, 5 μL of test compounds in 10% DMSO were added to wells in columns 2-11 of the 96-well plates (leaving columns 1 and 12 intact) to achieve an approximate final concentration of 15 μg/mL test compound and a final concentration of 1% DMSO. Fifth, 5 μL of 1 mM Salubrinal in a solution of 10% DMSO:90% DMEM was added to wells of column 1/rows A-D of each plate, while 5 μL of 10% DMSO:90% DMEM solution was added to wells corresponding to column 1/rows E-H and to all wells in column 12. Sixth, the plates were returned to culture.

[3] = system: CSM14.1 cells; assay: Tunicamycin-induced cell death of CSM14.1 cells; settings: 100 μm salubrinal; stated in the description of FIG. 13 (tunicamycin, annexin V flow cytometry)
Method: CSM 14.1 cells were plated at a density of 3×10^3 cells/well in 96-well plates and incubated overnight. Cells were pre-incubated with 25 μM of each compound or 100 μM salubrinal for two hours, followed by […] tunicamycin treatment. 72 hours later, cell death rates were measured by flow cytometry analysis. Annexin V-negative population was considered as survivors. In FIG. 13, the white column represents 0.5% DMSO control showing 24% of survival, and the gray column 100 μM salubrinal. Black columns are data from each compound (25 μM) (compound numbers refer to the compounds in Table 9).
For the experiments shown in FIG. 18, undifferentiated CSM 14.1 cells were plated at 3,000 cells per well in 96-well plates (for the ATP assay) or at 1×10^4 cells per well in 24-well plates (for flow cytometry). The next day, cells were treated with DMSO (0.5%) or hit compounds 25 μM of a compound with 0.5% DMSO final concentration) for two hours, followed by treatment with various cell death-inducing reagents, including 15 μM Thapsigargin (TG) for 24 hrs, 10 μg/mL tunicamycin (TU) for 72 hrs, 2.5 μM staurosporine (STS) for 24 hrs, 50 μM VP16 for 48 hrs, or 30 ng/mL TNF plus 10 μg/mL cyclohexamide (CHX) for 24 hrs. Cellular ATP content was measured for staurosporine samples and TNF/CHX samples, normalizing data relative to cells treated with DMSO alone (the control) and presenting as a percentage of control. For measuring cell death resulting from treatment with tunicamycin and VP16, flow cytometry was used. All assays were performed in triplicate (mean ±SD).

[4] = system: CSM 14.1 cells; assay: MTS assay of thapsigargin-induced death of CSM 14.1 cells; settings: salubrinal two hours before 7.5 mM thapsigargin, 18 hours
Method: CSM 14.1 cells were plated at a density of 3×10^3 cells per well in 96-well plates and incubated overnight. The indicated concentration of salubrinal was pre incubated with cells for two hours, followed by […] thapsigargin treatment. 18 hours later, cell death rates were measured by the MTS assay. For the MTS assay, the CellTiter 960 Aqueous Non-radioactive Cell Proliferation Assay kit (Promega) was used. The reaction-ready solution was made according to the manufacturer's protocol, and each treated well of the 96-well plate was incubated with 20 μl of the reaction-ready solution. The plates were incubated humidified cell incubator at 37° C. with 5% CO2 for two hours, and the absorbance of each well was read by an ELISA plate reader at 490 nm wavelength. To determine the background level of absorbance, the same volume of culture media (DMEM without cells) was incubated with MTS solution. The background value was subtracted from the value of each well. Background values from the control treatment (no TG, no Sal) wells were set as 100% survival, and the experimental wells' values were evaluated as the percentage of the control value.

[5] = system: differentiated CSM14.1 cells; assay: ATP content assay, thapsigargin-treated differentiated CSM14.1 cells; settings: compound 25 μM with 10 μM thapsigargin, Salubrinal 100 μM
Method: Of the 26 compounds shown in Table 9, 16 were subsequently confirmed to protect differentiated CSM14.1 cells from TG-induced cell death. For these assays, CSM14.1 cells were differentiated by culture in 2% FBS for 7 days at non-permissive temperature of 39° C. […] CSM14.1 cells were plated at 1,500 cells per well in 96-well plates, and cultured overnight at 32° C. (permissive temperature; FIG. 14, left) or at 39° C. (non-permissive temperature, FIG. 14, right) for 7 days. […] ATP content was measured, and data were expressed as a percentage of control cells treated only with 1% DMSO (mean ±SD; n=3). Two percent FBS was used during differentiation, but all assays were performed in 10% FBS.
For PC12, cells were stimulated with 20 ng/ml NGF for five days; for C17.2, cells were stimulated with serum reduction, and 1% N2 incubation for three days; for CSM14.1, cells were cultured at 39° C. for 5-7 days.
CSM14.1 cells were plated at 1,500 cells per well in 96-well plates and cultured at 39° C. (non-permissive temperature) for 7 days. […] ATP content was measured and data were expressed as a percentage of control cells treated with only 1% DMSO.

[6] = system: CSM14.1 cells; assay: Pilot dose-response of thapsigargin on undifferentiated CSM14.1 cells (ATP content, vital dye exclusion)
Method: In pilot experiments, undifferentiated CSM14.1 cells were plated at various densities in wells of a 96 well plate, cultured overnight, then the ATP content of the cells was measured using the luminogenic ATPlite reagent (FIG. 4A). We also performed dose-response experiments for thapsigargin (FIG. 4B) by culturing CSM14.1 cells at 3,000 cells per well overnight, then treating the cells with various concentrations of TG or Sal and cultured for 18 hrs before determining ATP content (mean ±SD; n=3) (FIG. 4B). Similarly, we performed dose response experiments for Salubrinal (Sal). Cells were plated and cultured as above, then treated with various concentrations of Salubrinal, followed two hrs later by 15 uM TG. Cells were cultured for 18 hrs, then ATP content was determined (mean ±SD; n=3) (FIG. 4C). […] As a control, we employed Salubrinal, which was reported to block ER stress-induced cell death (Boyce et al., Science, 307:935-939, 2005).

Q: `O=C(CN1CC[n+]2c(-c3cccs3)csc21)c1ccccc1.[Br-]` [Compound 5979207] was tested. Which “Protection against TG-induced cell death measured by annexin V staining” value [1] did it give?
A: Its value is “less active”.

Q: And the “Activity against thapsigargin-induced cell death / cell protection” value ([2]; cell death assay used for primary screening)?
A: The value was “potent inhibitor of cell death”.

Q: How did the “Protection against TG-induced cell death measured by annexin V staining” value [1] turn out when `COc1cccc(CN2CCN(C(=O)c3ccc(-c4ccccc4)cc3)CC2)c1` [Compound 5998734] was run?
A: The value was “less active”.

Q: What about the IC50 ([2]; first assay, read-out: IC50 (μM), first value) of the same molecule?
A: Its IC50 is 20 ± 0.493 µM.

Q: And the IC50 ([2]; second assay (value in bold), read-out: IC50 (μM), value from a second assay)?
A: Its IC50 is 14.6 ± 26.6 µM.

Q: For `O=C(/C=C/c1ccccc1)NC(NC(=S)Nc1cccc2cccnc12)C(Cl)(Cl)Cl` (stereo not drawn) [Salubrinal, reference compound], which “Inhibition of tunicamycin-induced cell death” value [3] is on record?
A: The value was 75%.

Q: And the “Inhibition of thapsigargin-induced cell death, MTS assay” value [4]?
A: The value was “less efficiently than our hit compounds”.

Q: What about the “Protection of differentiated CSM14.1 cells from thapsigargin-induced death” value [5] of the same molecule?
A: The value was “protects”.

Q: What about the “Protection against TG-induced cell death by Salubrinal” value [2] of the same molecule?
A: Its value is “significantly protected; also recorded: protects”.

Q: What about the “Protection against TG-induced cell death by Salubrinal” value ([2]; listed as Sal) of the same molecule?
A: Its value is “protects”.

Q: For `C/C=C(/C)C(=O)O[C@H]1C(C)=C2[C@H]([C@@H]1OC(=O)CCCCCCC)[C@@](C)(OC(C)=O)C[C@H](OC(=O)CCC)[C@@]1(O)[C@H]2OC(=O)[C@@]1(C)O` [thapsigargin], which “reduction in ATP per well” value ([6]; 15 μM thapsigargin, 3,000 cells per well, 18 hrs) is on record?
A: Its value is ~95%.

Q: And the cell killing ([6]; 15 μM thapsigargin, vital dye exclusion assays)?
A: The cell killing was ~95%.
